In one assay the test system is MCF-7 cells. As to the kind of experiment: Breast Cancer Cell Viability Assay (MCF7 Viability Assay). Type of assay: cell-based. Particulars: for IC50: Homo sapiens, MCF7, 120 h, read-out: MCF7 Viability Assay IC50. The procedure:
MCF-7 cells were adjusted to a concentration of 20,000 cells per mL in RPMI containing 10% FBS and 20 mM HEPES. 16 microliters of the cell suspension (320 cells) was added to each well of a 384 well plate, and the cells were incubated overnight to allow the cells to adhere. The following day an eleven point, serial semilog dilution of each compound was added to the cells in 16 μL at a final concentration ranging from 0.3-0.000003 μM. After 5 days' compound exposure, 16 μL of CellTiter-GLo (Promega, Madison Wis.) was added to the cells the relative luminescence units (RLUs) of each well was determined. CellTiter-Glo added to 32 μL of medium without cells was used to obtain a background value. The Percent viability of each sample was determined as follows: (RLU sample-RLU background/RLU untreated cells-RLU background)×100=% viability.

In another assay the target is T1, ER-α (Homo sapiens, UniProt P03372).
T1 construct: endogenous in cells; host or cells: MCF-7
As to the kind of experiment: Breast Cancer Cell ER-α in Cell Western Assay (SP1). Type of assay: cell-based. Particulars: MCF7, read-out: ER In-Cell Western Assay (SP1); Max Response. The procedure: MCF-7 cells were adjusted to a concentration of 200,000 cells per mL in RPMI containing 10% charcoal-stripped FBS and 20 mM HEPES. 16 microliters of the cell suspension (3200 cells) was added to each well of a poly-D-lysine 384 well plate, and the cells were incubated overnight to allow the cells to adhere. The following day an eleven point, serial semilog dilution of each compound was added to the cells in 16 μL at a final concentration ranging from 0.3-0.000003 μM. At 4 or 24 hr post compound addition, the cells were fixed (10% formalin in PBS) for 20 minutes. Cells were permeablized in PBS 0.1% Triton and blocked with LICOR blocking buffer (50 μl/well, 90′). The wells were then incubated overnight at 4° C. with SP1 rabbit monoclonal Ab (Thermo Scientific) diluted 1:1000 in LICOR blocking buffer/0.1% Tween-20. Wells which were treated with blocking buffer with Tween but no antibody were used as a background control. Wells were washed with 0.1% Tween-20/PBS and then incubated in goat anti-rabbit IRDye™ 800 CW (LICOR Inc.; 1:1000) and DRAQ5 DNA dye (1:2000 for 2 mM stock) diluted in LICOR blocking buffer containing 0.1% Tween-20 and 0.01% SDS for 60 minutes. Cells were washed (50 μl/well, 5′ each) in 0.1% Tween-20/PBS. Plates were scanned on a LICOR Odyssey infrared imaging system. Integrated intensities in the 800 nm channel and 700 nm channel were measured to determine levels of ER and DNA respectively. Percent ER levels were determined as follows: (Integrated intensity 800 nm sample/integrated intensity 700 nm sample)/(Integrated intensity 800 nm untreated cells/integrated intensity 700 nm untreated cells)×100=% ER levels.

[1] abbreviates: MCF-7 cells, 5 days' compound exposure, CellTiter-Glo.

Read-outs that look alike come from different tables or passages of the source.

For orientation: IC50 means the point on the concentration scale where inhibition reaches its midpoint.

T1 sequence (P03372 whole entry): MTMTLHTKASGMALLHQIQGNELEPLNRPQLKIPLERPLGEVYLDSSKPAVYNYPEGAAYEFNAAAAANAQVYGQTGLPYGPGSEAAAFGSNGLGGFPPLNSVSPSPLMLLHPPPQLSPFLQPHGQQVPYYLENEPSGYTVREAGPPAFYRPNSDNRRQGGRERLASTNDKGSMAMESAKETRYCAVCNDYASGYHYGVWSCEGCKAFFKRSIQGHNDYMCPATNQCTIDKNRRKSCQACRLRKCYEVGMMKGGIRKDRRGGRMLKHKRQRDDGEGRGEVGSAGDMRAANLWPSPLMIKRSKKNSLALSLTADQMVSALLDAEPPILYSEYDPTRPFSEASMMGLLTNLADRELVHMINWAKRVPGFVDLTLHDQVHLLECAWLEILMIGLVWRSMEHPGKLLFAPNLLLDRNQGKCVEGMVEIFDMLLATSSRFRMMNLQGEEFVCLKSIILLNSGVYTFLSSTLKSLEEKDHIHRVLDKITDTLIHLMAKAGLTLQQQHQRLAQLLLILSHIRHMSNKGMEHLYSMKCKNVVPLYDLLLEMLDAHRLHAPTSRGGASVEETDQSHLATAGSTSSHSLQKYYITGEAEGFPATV

Take `CC1=C(c2ccc(C#N)cc2)C(c2ccc(OC[C@H](C)N3CC[C@@H](CF)C3)cc2)Oc2ccc(O)cc21` (stereo partly drawn) [Example 16]: in the assay with MCF-7 cells (setting [1]), the IC50 is more than 1 nM and the “MCF7 Viability Assay Max Response” value was “++ (a single % value ≧ 50%)”. Besides, on ER-α, the Emax is more than 85%.

Turning to `CC1=C(c2cccc(O)c2)C(c2ccc(OCCN3CCC(F)CC3)cc2)Oc2ccc(O)cc21` (stereo not drawn) [Example 17, 2-(4-(2-(4-Fluoropiperidin-1-yl)ethoxy)phenyl)-3-(3-hydroxyphenyl)-4-methyl-2H-chromen-6-ol], in the assay on MCF-7 cells (setting [1]), the IC50 is less than 1 nM and the “MCF7 Viability Assay Max Response” value is reported as “++ (a single % value ≧ 50%)”. On ER-α, the Emax lay within 60 to 85%.

As for `CC1=C(c2cccc(O)c2)C(c2ccc(OCCN3CCC[C@H]3CF)cc2)Oc2ccc(O)cc21` (stereo partly drawn) [Example 18, 2-(4-(2-((S)-2-(Fluoromethyl)pyrrolidin-1-yl)ethoxy)phenyl)-3-(3-hydroxyphenyl)-4-methyl-2H-chromen-6-ol], in the assay on MCF-7 cells, the IC50 was more than 1 nM. The “MCF7 Viability Assay Max Response” value in the assay with MCF-7 cells (setting [1]) is on record as “++ (a single % value ≧ 50%)”. Further, the Emax at ER-α was in the range of 60 to 85%.

For the compound `CC1=C(c2cccc(O)c2)C(c2ccc(OCCN3CCC[C@@H](CF)C3)cc2)Oc2ccc(O)cc21` (stereo partly drawn) [Example 20, 2-(4-(2-((R)-3-(Fluoromethyl)piperidin-1-yl)ethoxy)phenyl)-3-(3-hydroxyphenyl)-4-methyl-2H-chromen-6-ol], in the assay with MCF-7 cells (setting [1]), the IC50 is less than 1 nM and the “MCF7 Viability Assay Max Response” value is recorded as “+ (a single % value < 50%)”. Besides, the Emax on ER-α was less than 60%.

In the case of `CC1=C(c2cccc(O)c2)C(c2ccc(OCCN3CC[C@@H](C(F)F)C3)cc2)Oc2ccc(O)cc21` (stereo partly drawn) [Example 21, (R)-2-(4-(2-(3-(Difluoromethyl)pyrrolidin-1-yl)ethoxy)phenyl)-3-(3-hydroxyphenyl)-4-methyl-2H-chromen-6-ol], in the assay on MCF-7 cells, the IC50 is less than 1 nM. In the assay on MCF-7 cells (setting [1]), the “MCF7 Viability Assay Max Response” value is “++ (a single % value ≧ 50%)”. Besides, the Emax on ER-α is more than 85%.

Consider `CC1=C(c2cccc(O)c2)C(c2ccc(OCCN(C)CCCF)cc2)Oc2ccc(O)cc21` (stereo not drawn) [Example 22, 2-(4-(2-((3-Fluoropropyl)(methyl)amino)ethoxy)phenyl)-3-(3-hydroxyphenyl)-4-methyl-2H-chromen-6-ol], for which, in the assay with MCF-7 cells (setting [1]), the IC50 is less than 1 nM and the “MCF7 Viability Assay Max Response” value was “+ (a single % value < 50%)”. The Emax on ER-α is less than 60%.

Take `CCN(CCF)CCOc1ccc(C2Oc3ccc(O)cc3C(C)=C2c2cccc(O)c2)cc1` (stereo not drawn) [Example 23, 2-(4-(2-(Ethyl(2-fluoroethyl)amino)ethoxy)phenyl)-3-(3-hydroxyphenyl)-4-methyl-2H-chromen-6-ol]: in the assay with MCF-7 cells (setting [1]), the concentration for half-maximal inhibition (IC50) was more than 1 nM and the “MCF7 Viability Assay Max Response” value is “++ (a single % value ≧ 50%)”. The Emax on ER-α is less than 60%.

On to `CCN(CCCF)CCOc1ccc(C2Oc3ccc(O)cc3C(C)=C2c2cccc(O)c2)cc1` (stereo not drawn) [Example 24, 2-(4-(2-(Ethyl(3-fluoropropyl)amino)ethoxy)phenyl)-3-(3-hydroxyphenyl)-4-methyl-2H-chromen-6-ol], for which, in the assay with MCF-7 cells (setting [1]), the 50% inhibitory concentration (IC50) is less than 1 nM and the “MCF7 Viability Assay Max Response” value is recorded as “++ (a single % value ≧ 50%)”. Moreover, the Emax on ER-α was less than 60%.

With `CCN(CCOc1ccc(C2Oc3ccc(O)cc3C(C)=C2c2cccc(O)c2)cc1)CCC(F)(F)F` (stereo not drawn) [Example 25, 2-(4-(2-(Ethyl(3,3,3-trifluoropropyl)amino)ethoxy)phenyl)-3-(3-hydroxyphenyl)-4-methyl-2H-chromen-6-ol], in the assay on MCF-7 cells (setting [1]), the IC50 was more than 1 nM and the “MCF7 Viability Assay Max Response” value is recorded as “+ (a single % value < 50%)”. Also, on ER-α, the Emax is less than 60%.

Consider `CC1=C(c2ccc(F)cc2)C(c2ccc(OCCN3CC[C@@H](CF)C3)cc2)Oc2ccc(O)cc21` (stereo partly drawn) [Example 26, 2-(4-(2-((R)-3-(Fluoromethyl)pyrrolidin-1-yl)ethoxy)phenyl)-3-(4-fluorophenyl)-4-methyl-2H-chromen-6-ol], for which, in the assay on MCF-7 cells (setting [1]), the IC50 was more than 1 nM and the “MCF7 Viability Assay Max Response” value is given as “++ (a single % value ≧ 50%)”. Moreover, the Emax at ER-α was more than 85%.

Regarding `CC1=C(c2ccc(F)cc2)C(c2ccc(OC[C@H](C)N3CC[C@@H](CF)C3)cc2)Oc2ccc(O)cc21` (stereo partly drawn) [Example 27], in the assay with MCF-7 cells (setting [1]), the IC50 is more than 1 nM and the “MCF7 Viability Assay Max Response” value is “++ (a single % value ≧ 50%)”. For the same compound, the Emax on ER-α is more than 85%.

Consider `Cc1c(-c2ccc(O)cc2)n(Cc2ccc(OCCN3CC[C@@H](CF)C3)cc2)c2ccc(O)cc12` [Example 28, (R)-1-(4-(2-(3-(Fluoromethyl)pyrrolidin-1-yl)ethoxy)benzyl)-2-(4-hydroxyphenyl)-3-methyl-1H-indol-5-ol], for which, in the assay on MCF-7 cells (setting [1]), the IC50 is less than 1 nM and the “MCF7 Viability Assay Max Response” value is “++ (a single % value ≧ 50%)”. Further, the Emax at ER-α is more than 85%.

The values are drawn from US9193714B2, “Fluorinated estrogen receptor modulators and uses thereof” (priority 2011, dated 2015).
